Data set [1] can be described thus: physchem. The note with it: 37 °C, pH 7.5, aqueous with cosolvent or surfactant or cyclodextrin, kinetic from dmso stock.
Data set [2] concerns HT1080 cells. As to the kind of experiment: Tumor cell invasion, Matrigel-coated Transwell. The data set is classed as cell-based. As to conditions: Homo sapiens, HT-1080; 100 nM; Matrigel-coated filters, 18 h. Here is the method: (§1) FIG. 7 illustrates inhibition of HT1080 cell motility and invasion by inhibitor 2.3. A-B: Confluent cultures of HT1080 cells in 6-well plates were treated with mitomycin C (25 μg/ml) in serum-free DMEM media for 30 minutes. Scratch wounds were made on the monolayers and the wounded cultures were then incubated with serum-free DMEM supplemented without or with various amounts of inhibitor 2.3 (0-20 μM) for up to 20 hours. At each time period, the cultures were photographed (A) and the width of the scratch wound was measured as described under the Experimental Procedures section of Example 2. (C): HT1080 cells were seeded in 8-μm pore Transwell filters coated with Matrigel (50 μg/filter) in the presence or absence of inhibitor 2.3 (0.1-10 μM). The number of cells that invaded to the lower side of the filter was counted in three representative fields. Each value represents the mean±SE of four independent determinations. *P<0.05, and *P<0.001 when tested against the control using Tukey-Kramer Multiple Comparisons Test (P=0.004 by ANOVA).
Tumor cell invasion was carried out in 8-μm pore Transwell inserts (Becton Dickinson, Boston, Mass.) coated with 50 μg Matrigel per filter. […] The cells that migrated to the lower side of the Matrigel-coated filter were fixed and stained with Diff-Quik® (Dade Behring Inc., Newark, Del.), and counted under a microscope in three different fields. […]

Data set [3] addresses T1, MMP-3 (Homo sapiens, UniProt P08254). The note with it: MMP-3, rapid competitive inhibition.
Target sequence in this assay (P08254 100-272 limits assumed): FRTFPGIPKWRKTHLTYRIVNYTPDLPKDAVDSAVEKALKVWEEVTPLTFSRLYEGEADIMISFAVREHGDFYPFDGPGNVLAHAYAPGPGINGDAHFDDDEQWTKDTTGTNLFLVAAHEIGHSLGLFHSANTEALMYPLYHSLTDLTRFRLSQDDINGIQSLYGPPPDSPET
Data set [4] concerns the target T2, MMP-1 (Homo sapiens, UniProt P03956).
T2 sequence (P03956 100-469): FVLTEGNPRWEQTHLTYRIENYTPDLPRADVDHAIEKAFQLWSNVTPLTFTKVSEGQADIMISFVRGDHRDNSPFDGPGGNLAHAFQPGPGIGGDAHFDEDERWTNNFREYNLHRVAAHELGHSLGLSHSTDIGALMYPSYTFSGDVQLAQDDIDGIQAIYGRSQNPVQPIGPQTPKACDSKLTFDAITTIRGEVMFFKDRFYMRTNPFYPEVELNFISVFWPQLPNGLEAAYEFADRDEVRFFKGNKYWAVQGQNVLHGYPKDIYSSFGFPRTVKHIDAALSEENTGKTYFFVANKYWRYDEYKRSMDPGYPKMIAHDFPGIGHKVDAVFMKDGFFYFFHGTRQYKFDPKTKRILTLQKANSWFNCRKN
As to the kind of experiment: biochemical.

Data set [5] has as its target T3, MMP-7 (Homo sapiens, UniProt P09237).
T3 sequence (P09237 95-267): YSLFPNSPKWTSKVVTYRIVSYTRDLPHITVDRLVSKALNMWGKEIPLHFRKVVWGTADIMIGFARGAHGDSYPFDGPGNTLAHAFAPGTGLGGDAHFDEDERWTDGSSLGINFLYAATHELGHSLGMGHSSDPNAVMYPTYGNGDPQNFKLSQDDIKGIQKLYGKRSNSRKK
The note with it: MMP-7, rapid competitive inhibition.

Data set [6] concerns HT1080 cells. As to the kind of experiment: Migration assay, scratch wound. The data set is classed as cell-based, human. Here is the method:
as §1
Migration and Invasion Assays—For migration assays, HT1080 cells were cultured in 6-well plates in complete media until they reached confluence. […] The extent of wound closure in the presence or absence of inhibitor was quantified by measuring the width of the wound with a ruler using an amplified PowerPoint figure.

For data set [7], the target named is T4, MMP-14 (Homo sapiens, UniProt P50281). As to conditions: MMP-14, slow-binding component, koff/kon.
Data set [8] deals with T5, MMP-9 (Homo sapiens, UniProt P14780). The note with it: read-out: Ki of the slow-binding component.
Target sequence in this assay (P14780 107-707 limits assumed): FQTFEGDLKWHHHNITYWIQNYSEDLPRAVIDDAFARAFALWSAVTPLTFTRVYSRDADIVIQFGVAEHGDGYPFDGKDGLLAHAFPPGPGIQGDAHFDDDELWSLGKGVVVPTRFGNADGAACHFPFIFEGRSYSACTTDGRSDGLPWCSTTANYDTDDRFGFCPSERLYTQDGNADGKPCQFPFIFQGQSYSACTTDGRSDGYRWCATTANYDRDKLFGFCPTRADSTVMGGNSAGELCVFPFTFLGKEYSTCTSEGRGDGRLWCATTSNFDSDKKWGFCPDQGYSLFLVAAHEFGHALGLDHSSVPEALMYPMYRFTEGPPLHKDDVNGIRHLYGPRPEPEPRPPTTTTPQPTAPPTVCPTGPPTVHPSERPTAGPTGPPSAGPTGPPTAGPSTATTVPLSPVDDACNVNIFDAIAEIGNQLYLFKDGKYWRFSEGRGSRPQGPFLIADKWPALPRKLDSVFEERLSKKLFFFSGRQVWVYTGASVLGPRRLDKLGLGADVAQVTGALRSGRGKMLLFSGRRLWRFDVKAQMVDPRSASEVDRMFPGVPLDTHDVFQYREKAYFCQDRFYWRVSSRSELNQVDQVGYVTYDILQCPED
Data set [9] concerns HT1080 cells. As to the kind of experiment: Chemosensitivity assay (WST-1). As to conditions: up to 10 μM, 18 hours. In kind it is cell-based, human. How it is done:
Chemosensitivity Assay—Cell viability after exposure of the cells to the inhibitors was assessed by 2-(4-iodophenyl)-3-(4-nitrophenyl)-5-(2,4-disulfophenyl)-2H-tetrazolium, monosodium salt (WST-1, Roche Diagnostics Gmbh, Mannheim, Germany) staining Briefly, HT1080 cells (2×10^4 cells/well) were seeded in 96-well culture plates in complete medium. After overnight culture, the medium was replaced with serum and phenol-free media containing 0.1% BSA and supplemented with or without inhibitor 2.3 (0-10 μM final concentrations). Control medium was supplemented with 1% DMSO. After 18 hours incubation, WST-1 (10 μL/well) was added and the difference in absorbance at 450 and 655 (reference filter) nm was measured using a Bio-Rad Benchmark microplate reader. Data were collected using the Microplate Manager software. The absorbance of blank wells containing control media but no cells (typically <5%) was subtracted. Each treatment was assayed in quadruplicate.

The target in data set [10] is T2, MMP-1. As to the kind of experiment: Enzyme kinetics, MMP inhibition (Example 1). In kind it is biochemical.
In data set [11] the target is T6, MMP-2 (Homo sapiens, UniProt P08253).
T6 sequence (P08253 110-660): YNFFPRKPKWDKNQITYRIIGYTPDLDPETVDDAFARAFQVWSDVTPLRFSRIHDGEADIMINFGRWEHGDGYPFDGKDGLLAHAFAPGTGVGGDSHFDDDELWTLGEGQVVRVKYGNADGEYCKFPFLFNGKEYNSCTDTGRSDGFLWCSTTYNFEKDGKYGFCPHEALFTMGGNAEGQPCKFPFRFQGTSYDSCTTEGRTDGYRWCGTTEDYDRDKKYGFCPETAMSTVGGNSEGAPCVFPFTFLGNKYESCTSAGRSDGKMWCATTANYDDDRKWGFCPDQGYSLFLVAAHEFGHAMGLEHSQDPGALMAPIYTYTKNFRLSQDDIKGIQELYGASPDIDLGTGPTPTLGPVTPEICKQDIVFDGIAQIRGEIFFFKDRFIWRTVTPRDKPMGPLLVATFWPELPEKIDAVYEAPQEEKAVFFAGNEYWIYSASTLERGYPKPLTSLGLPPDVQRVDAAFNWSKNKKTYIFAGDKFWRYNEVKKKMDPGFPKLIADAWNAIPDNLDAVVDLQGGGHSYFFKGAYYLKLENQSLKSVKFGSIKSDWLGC
As to the kind of experiment: Enzyme kinetics, MMP inhibition (Example 1). The data set is classed as biochemical. As to conditions: for Ki: for 1.3 with slow-binding component.

For data set [12], the target named is T7, MMP-14cat (Homo sapiens, UniProt P50281).
T7 construct: MMP-2 (A), MMP-9 (B) and MMP-14cat (C)
Kind of data set: Enzyme kinetics, MMP inhibition (Example 1). The data set is classed as biochemical.

The target in data set [13] is T5, MMP-9. Kind of data set: Enzyme kinetics, MMP inhibition (Example 1). In kind it is biochemical.
Target sequence in this assay (P14780 94-707): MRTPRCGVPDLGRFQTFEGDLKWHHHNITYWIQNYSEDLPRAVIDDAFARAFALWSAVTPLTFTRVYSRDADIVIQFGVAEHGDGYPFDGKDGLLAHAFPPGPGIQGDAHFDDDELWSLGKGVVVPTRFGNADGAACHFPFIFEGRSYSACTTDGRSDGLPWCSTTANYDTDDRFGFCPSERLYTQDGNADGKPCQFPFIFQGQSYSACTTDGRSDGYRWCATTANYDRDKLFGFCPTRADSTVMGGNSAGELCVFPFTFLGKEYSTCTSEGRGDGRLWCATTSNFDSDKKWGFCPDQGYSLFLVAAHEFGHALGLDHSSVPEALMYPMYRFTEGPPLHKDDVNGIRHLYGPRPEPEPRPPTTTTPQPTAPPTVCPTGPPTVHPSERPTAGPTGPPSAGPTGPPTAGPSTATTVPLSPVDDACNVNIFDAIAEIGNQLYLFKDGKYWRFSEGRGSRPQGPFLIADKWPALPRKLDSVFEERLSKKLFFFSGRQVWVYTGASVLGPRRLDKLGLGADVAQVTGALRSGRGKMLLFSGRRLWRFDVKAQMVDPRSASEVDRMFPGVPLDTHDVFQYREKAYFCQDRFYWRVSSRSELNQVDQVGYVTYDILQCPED
Data set [14] has as its target T1, MMP-3. As to the kind of experiment: Enzyme kinetics, MMP inhibition (Example 1). In kind it is biochemical.
Target sequence in this assay (P08254 100-477): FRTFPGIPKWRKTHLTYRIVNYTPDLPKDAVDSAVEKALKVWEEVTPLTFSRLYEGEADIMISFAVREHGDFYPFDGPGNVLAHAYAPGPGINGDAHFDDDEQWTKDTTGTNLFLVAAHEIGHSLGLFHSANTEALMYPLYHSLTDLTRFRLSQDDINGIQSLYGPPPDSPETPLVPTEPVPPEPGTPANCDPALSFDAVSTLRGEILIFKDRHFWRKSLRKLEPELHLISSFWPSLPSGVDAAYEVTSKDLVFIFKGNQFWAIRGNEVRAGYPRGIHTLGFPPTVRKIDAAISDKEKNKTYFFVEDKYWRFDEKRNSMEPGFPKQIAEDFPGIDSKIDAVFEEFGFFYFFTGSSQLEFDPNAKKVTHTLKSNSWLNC
The target in data set [15] is T3, MMP-7. Kind of data set: Enzyme kinetics, MMP inhibition (Example 1). The data set is classed as biochemical.
In data set [16] the target is T4, MMP-14. Kind of data set: biochemical.
The target in data set [17] is T3, MMP-7. As to the kind of experiment: biochemical.
Data set [18] has as its target T5, MMP-9. Kind of data set: biochemical.
Target sequence in this assay (P14780 107-707 limits assumed): as the sequence (P14780 107-707 limits assumed) above
For data set [19], the target named is T1, MMP-3. As to the kind of experiment: biochemical.
Target sequence in this assay (P08254 100-272 limits assumed): as the sequence (P08254 100-272 limits assumed) above
A short description of data set [20]: Assessment of inhibitor solubility. As to conditions: 37 °C, pH 7.5, aqueous with cosolvent or surfactant or cyclodextrin, kinetic from dmso stock.

Converted amounts (≈) assume the structure as drawn. Read-outs that look alike come from different tables or passages of the source.

From US8093287B2, “Inhibitors of matrix metalloproteinases” (University of Notre Dame du Lac, priority 2005, dated 2012) come the findings set out here.

As usually defined, the solubility is the dissolved amount per volume that the medium holds. For the molecule `CC(=O)Nc1ccc(Oc2ccc(S(=O)(=O)CC3CS3)cc2)cc1` (stereo not drawn) [Compound 2.7, [4-(4-Acetamidophenoxy)phenylsulfonyl]methylthiirane], the concentration in solution in data set [1] (solubility) came to 540 µM (≈ 196 µg/mL).

The term inhibition denotes the change of the read-out against control, counted positive when it falls. In general, Ki refers to a measure of affinity in units of concentration, obtained from inhibition or displacement. With `CS(=O)(=O)Nc1ccc(Oc2ccc(S(=O)(=O)CC3CS3)cc2)cc1` (stereo not drawn) [Compound 2.3, {4-[4-(Methanesulfonamido)phenoxy]phenylsulfonyl}methylthiirane], the inhibition at 0.1 µM in data set [2] is greater than 25%. In addition, the Ki in data set [3] is 3.6 ± 0.2 µM; in data set [4] it was greater than 25 µM; in [5], 295 ± 10 µM; in [7], 0.9 ± 0.1 µM; in data set [8] it was 0.18 ± 0.05 µM. In addition, the solubility in data set [1] was 340 µM (≈ 136 µg/mL). Further, the “migration in scratch wound assay” value in [6] (200 nM) is reported as “slower migration”. Moreover, the inhibition at 2 µM in [6] (Homo sapiens, HT-1080) was determined as 80%. In addition, the “cell toxicity (WST-1)” value in data set [9] is reported as “no evidence of cell toxicity”.

“Methyl 2-(4-{4-[(2-Thiiranylpropyl)sulfonyl]phenoxy}phenyl)-acetate [Compound 1.3]”: the Ki in data set [10] is 11 µM; in data set [11], 0.05 ± 0.014 µM; in data set [12], 0.59 ± 0.07 µM; in data set [13], 0.04 ± 0.002 µM; in data set [14], 8.7 µM; in data set [15] it was 13 µM. Moreover, the “koff, slow-binding component of inhibition” value in [11] is “(6.2 ± 0.7) × 10^−4 s^−1”. Also, in data set [11], the “kon, slow-binding component of inhibition” value is “(1.2 ± 0.3) 10^4 M^−1s^−1”.

For `CC(=O)Nc1ccc(Oc2ccc(S(=O)(=O)CC3CO3)cc2)cc1` (stereo not drawn) [Compound 2.6, [4-(4-Acetamidophenoxy)phenylsulfonyl]methyloxirane], the Ki in [16] is greater than 230 µM; in data set [17], greater than 184 µM; in data set [4], greater than 154 µM; in [18], 34 ± 3 µM; in data set [19], greater than 188 µM.

As to `O=S(=O)(CC1CS1)c1ccc(Oc2ccccc2)cc1` (stereo not drawn) [Compound 2.1, reference compound], the solubility in [1] is 80 µM (≈ 24.5 µg/mL). That is a double-digit micromolar value.

For “2-(4-{4-[(2-Thiiranylpropyl)sulfonyl]phenoxy}phenyl)acetic acid [Compound 1.4]”, the Ki in [10] came out at 4.5 µM; in [11] it was 0.46 µM; in [12], 53 µM; in [13] it was 4.1 µM; in data set [14], 540 µM; in [15], 250 µM.

On to `O=[N+]([O-])c1ccc(Oc2ccc(S(=O)(=O)CC3CO3)cc2)cc1` (stereo not drawn) [Compound 2.4, [4-(4-Nitrophenoxy)phenylsulfonyl]methyloxirane], for which the Ki in data set [16] was 76 ± 13 µM; in [17] it was 130 ± 15 µM; in [4], greater than 298 µM; in data set [18] it was 25 ± 5 µM; in [19] it was greater than 190 µM.

With `O=[N+]([O-])c1ccc(Oc2ccc(S(=O)(=O)CC3CS3)cc2)cc1` (stereo not drawn) [Compound 2.5, [4-(4-Nitrophenoxy)phenylsulfonyl]methylthiirane], the Ki in data set [16] was 4.9 ± 0.3 µM; in [17] it was 153 ± 16 µM; in [4], 67 ± 18 µM; in data set [18], 1 ± 0.1 µM; in data set [19] it was 131 ± 9 µM. The same molecule yielded a solubility in [20] of 60 µM (≈ 21.1 µg/mL).
